Data set [1] in a line: Analgesic activity: Randall and Selitto's test (beer yeast paw, pain threshold). Format: in vivo, rat. The protocol: This activity was measured by Siegmund's test in mice and Randall and Selitto's test in the rat. Groups of ten male rats each weight 120 to 140 g received by subcutaneous plantar injection 0.05 ml of a 5% aqueous suspension of beer yeast. 2 Hours after this treatment they received the compound under test orally and 1 hour after administration of this compound the paw which had been injected and the contralateral paw were subjected to increasing pressure. The appearance of the pain threshold was noted.

The nature of another data set: Solubility in water. Format: physicochemical. The note with it: monohydrochloride.
A short description of a further data set: Escape test. Format: in vivo. The following applies: Mus musculus, ip, 0.5 h, read-out: Percentage inhibition (number of attempts to escape); for change in vivo at 16 mg/kg: 16 mg/kg intraperitoneally; for change in vivo at 32 mg/kg: 32 mg/kg intraperitoneally; for change in vivo at 64 mg/kg: 64 mg/kg intraperitoneally; for change in vivo at 128 mg/kg: 128 mg/kg intraperitoneally. The procedure:
Groups of 8 mice were placed in sub groups of 4 in an enclosure from which they could escape by an inclined plane. The number of attempts to escape during 5 minutes were counted half an hour after intraperitoneal administration of the compound under test.

Data set [2] can be described thus: Antagonism of convulsions produced by cardiazole. The following applies: Mus musculus, ip, read-out: Percentage inhibition of tonic convulsions; for inhibition in vivo at 64 mg/kg: 64 mg/kg intraperitoneally; for inhibition in vivo at 128 mg/kg: 128 mg/kg intraperitoneally. Format: in vivo. The procedure:
Groups of 6 mice received the compound under test 30 minutes before introperitoneal injection of 160 mg/kg of cardiazole. The action of the compound under test on the tonic convulsion phase was observed.

The nature of data set [3]: Analgesic activity: Siegmund's test (phenylbenzoquinone painful reactions). Format: in vivo. The following applies: Mus musculus, po, read-out: percentage inhibition of reactions; for inhibition in vivo at 64 mg/kg: 64 mg/kg orally; for inhibition in vivo at 128 mg/kg: 128 mg/kg orally; for inhibition in vivo at 256 mg/kg: 256 mg/kg orally. The protocol: This activity was measured by Siegmund's test in mice and Randall and Selitto's test in the rat.
Groups of six mice received the compound under test orally 1 hour before intraperitoneal injection of 0.2 ml of an 0.02% of solution of phenylbenzoquinone. The number of painful reactiors from the fifth to the tenth minute after the injection of phenylbenzoquinone was counted.

The nature of data set [4]: Anti-inflammatory activity: oedema provoked by carragenin in the rat. The following applies: po, read-out: percentage inhibition of oedema; for inhibition in vivo at 256 mg/kg: 256 mg/kg orally. Format: in vivo. The protocol: The method used was as follows.
The anti-inflammatory activity was measured on oedema provoked by carragenin in the rat. Groups of six male rats each weighing 120 to 130 g received the compound under test orally in suspension in "tween 80", half the dose being given 2 hours before and the other half 1/2 hour before the subcutaneous plantar injection of 0.05 ml of a 1 % carragenin solution. The volume of the injected paw was measured by plethysmography at regular intervals. Table 1 below gives the percentage inhibition of the oedema with reference to untreated controls.

On to `Cc1cccc(Nc2ncccc2C(=O)OCC(C)(C)N(C)C)c1C` [Example 3, 2-Dimethylamino-2-methylpropyl nixylate], for which the “percentage increase of pain threshold” value in data set [1] (with yeast, 16 mg/kg orally) stood at 33%; in data set [1] (with yeast, 32 mg/kg orally), 42%; in data set [1] (with yeast, 64 mg/kg orally), 66%; in data set [1] (with yeast, 128 mg/kg orally), 41%; in data set [1] (without yeast, 32 mg/kg orally), 0%; in data set [1] (without yeast, 64 mg/kg orally), 2%. Moreover, the “percentage increase of pain threshold” value in data set [1] (without yeast, 128 mg/kg orally) amounted to 11%; in data set [1] (without yeast, 256 mg/kg orally), 0%. For the same molecule, the solubility in water entry in the data set “Solubility in water” was “soluble in water”. The change in vivo at 8 mg/kg in “Escape test” (8 mg/kg intraperitoneally) was -16%. Also, in the data set “Escape test”, the change in vivo at 16 mg/kg was -15%. Further, the change in vivo at 32 mg/kg in the data set “Escape test” was -30%. Besides, in the data set “Escape test”, the change in vivo at 64 mg/kg was -67%. Further, in “Escape test”, the change in vivo at 128 mg/kg is -95%. In data set [2] (8 mg/kg intraperitoneally), the inhibition in vivo at 8 mg/kg was 0%. Moreover, in data set [2] (16 mg/kg intraperitoneally), the inhibition in vivo at 16 mg/kg was 5%. For the same molecule, in data set [2] (32 mg/kg intraperitoneally), the inhibition in vivo at 32 mg/kg was found to be 16%. For the same molecule, the inhibition in vivo at 64 mg/kg in data set [2] amounted to 83%; in data set [3] it was 31%. Further, the inhibition in vivo at 128 mg/kg in data set [2] is 100%; in data set [3], 49%; in data set [4] (128 mg/kg orally), 0%. Besides, the inhibition in vivo at 256 mg/kg in data set [3] stood at 75%; in data set [4], 72%. The inhibition in vivo at 512 mg/kg in data set [4] (512 mg/kg orally) worked out at 67%.
On to `Cc1cccc(Cl)c1Nc1ncccc1C(=O)OCCN1CCOCC1` [Example 9, β-Morpholino ethyl 2-(2-chloro-6-methylanilino) nicotinate], for which the solubility in water result in the data set “Solubility in water” is reported as “soluble in water”. Further, in the data set “Escape test”, the change in vivo at 16 mg/kg is -19%, the change in vivo at 32 mg/kg is -22%, the change in vivo at 64 mg/kg was -59% and the change in vivo at 128 mg/kg is -100%. Moreover, in data set [2], the inhibition in vivo at 64 mg/kg was 0% and the inhibition in vivo at 128 mg/kg was 100%. The inhibition in vivo at 16 mg/kg in data set [3] (16 mg/kg orally) was found to be 14%. Moreover, in data set [3] (32 mg/kg orally), the inhibition in vivo at 32 mg/kg stood at 8%. Besides, in data set [3], the inhibition in vivo at 64 mg/kg worked out at 8%, the inhibition in vivo at 128 mg/kg came out at 37% and the inhibition in vivo at 256 mg/kg is 66%. Moreover, in data set [4] (16 mg/kg orally), the inhibition in vivo at 16 mg/kg was 7%. Also, in data set [4] (64 mg/kg orally), the inhibition in vivo at 64 mg/kg is 20%. Also, the inhibition in vivo at 256 mg/kg in data set [4] was found to be 39%.

Source of the values: patent US3959272A, “Aminoalkyl esters of 2-anilino-nicotinic acids” (Societe Anonyme dite: Hexachime, priority 1972, dated 1976).
